Patent publication US20250066359A1, “SOMATOSTATIN RECEPTOR SUBTYPE 5 ANTAGONISTS, AND PHARMACEUTICAL COMPOSITION AND USE THEREOF” (SHANGHAI INSTITUTE OF MATERIA MEDICA, CHINESE ACADEMY OF …, priority 2021, published 2025)

Tests used:
[1] = biological target: T1, mSSTR5 (Mus musculus, UniProt O08858); test: SSTR5 antagonistic activity in vitro by calcium flow detection (mSSTR5-CHO-Gα16 cells); type: cell-based; conditions: 100 nM Somatostatin-14 agonist, Fluo-4 fluorescence 525 nm
T1 construct: expressed in transfected cells; host or cells: CHO cells co-expressing Gα16 (mSSTR5-CHO-Gα16)
T1 sequence (O08858 1-362): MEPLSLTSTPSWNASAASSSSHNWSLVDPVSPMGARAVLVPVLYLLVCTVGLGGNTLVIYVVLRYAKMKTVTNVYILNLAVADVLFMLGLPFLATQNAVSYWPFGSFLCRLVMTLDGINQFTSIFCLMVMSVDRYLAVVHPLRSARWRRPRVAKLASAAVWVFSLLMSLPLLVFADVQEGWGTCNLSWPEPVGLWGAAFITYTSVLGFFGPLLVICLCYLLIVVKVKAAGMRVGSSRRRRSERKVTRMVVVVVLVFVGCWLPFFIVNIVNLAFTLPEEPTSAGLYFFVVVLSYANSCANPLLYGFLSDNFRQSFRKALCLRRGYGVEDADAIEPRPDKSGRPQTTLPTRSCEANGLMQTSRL
From the text: (§1) Testing SSTR5 antagonistic activity in vitro by Calcium flow detection method Experimental principle: After the receptor binds to the ligand and is activated, it can cause the activation of Gα16 protein, which further activates phospholipase C(PLC) to produce IP3 and DAG. IP3 can bind to the IP3 receptors on the endoplasmic reticulum and mitochondria in the cell, thereby causing the release of intracellular calcium. Therefore, measuring the changes in intracellular calcium can be used in the method to detect the activation state of hSSTR5. Fluo-4/AM is a calcium fluorescent probe indicator used to measure calcium ions. As a non-polar lipid-soluble compound, after it enters the cell, the AM group therein dissociates, and Fluo-4 is released under the action of cellular lipase; because Fluo-4 is a polar molecule and is not easy to pass through the lipid bilayer membrane, it can keep Fluo-4 in the cell fora longtime. Finally, the level of Ga protein activation can be reflected by measuring the intensity of the excited fluorescence. Somatostatin, an agonist of SSTR5, can activate SSTR5 receptors and greatly increase the calcium flow response. The SSTR5 antagonist to be tested can inhibit the agonist activity of the SSTR5 receptor and reduce the calcium increased flow response of the receptor stimulated by the agonist.
(§2) • (1) The hSSTR5-CHO-Gα16 and mSSTR5-CHO-Gα16 cell lines stably expressing hSSTR5 or mSSTR5 receptors were seeded at a density of 30,000/well in a 96-well plate and cultured in a 37° C. incubator overnight. • (2) The cells was aspirated off the culture medium, added with freshly prepared dye at 40 μL/well, and incubated in a 37° C. incubator for 45 minutes. • (3) After the dye was aspirated and discarded, the cells were washed with freshly prepared calcium buffer and the culture medium was replaced with 50 μL of calcium buffer. • (4) The SSTR5 agonist Somatostatin-14 was diluted and mixed evenly with calcium buffer. • (5) Detection was performed using a Flextation instrument. Starting from the 15th second, 25 μL of the pre-prepared agonist was automatically added by the instrument, and the fluorescence value at 525 nm was read.

[2] = biological target: T2, hSSTR5 (Homo sapiens, UniProt P35346); test: SSTR5 antagonistic activity in vitro by calcium flow detection (hSSTR5-CHO-Gα16 cells); type: cell-based; conditions: for IC50: hSSTR5-CHO-Gα16 cells, 100 nM Somatostatin-14 agonist, Fluo-4 fluorescence 525 nm; for SSTR5 antagonistic activity (in words): summary of Table 1
T2 construct: expressed in transfected cells; host or cells: CHO cells co-expressing Gα16 (hSSTR5-CHO-Gα16)
From the text: as §1, §2

T2 sequence (P35346 whole entry): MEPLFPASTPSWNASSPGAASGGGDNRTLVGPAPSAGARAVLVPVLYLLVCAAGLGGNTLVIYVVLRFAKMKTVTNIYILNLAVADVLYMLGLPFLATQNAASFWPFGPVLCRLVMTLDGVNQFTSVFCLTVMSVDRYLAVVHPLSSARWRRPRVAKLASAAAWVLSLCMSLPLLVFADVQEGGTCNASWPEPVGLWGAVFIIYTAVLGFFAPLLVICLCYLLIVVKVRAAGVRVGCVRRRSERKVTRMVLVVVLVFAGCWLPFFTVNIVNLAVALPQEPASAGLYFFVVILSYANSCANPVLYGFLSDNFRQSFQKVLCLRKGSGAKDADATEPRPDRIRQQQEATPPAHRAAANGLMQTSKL

IC50 [1]	IC50 [2]	SSTR5 antagonistic activity (in words) [2]	SMILES
0.1 to 50 nM	0.1 to 50 nM	potent SSTR5 antagonistic activity	CCOc1cc(CN2CCC3(CC2)CN(c2ccc(C(=O)O)c(OC)c2)C3)cc(OCC)c1-c1ccc(F)cc1 [Example 28, 4-(7-((2,6-diethoxy-4′-fluoro-[1,1′-biphenyl]-4-yl)methyl)-2,7-diazaspiro[3.5]nonan-2-yl)-2-methoxybenzoic acid]
0.1 to 50 nM	0.1 to 50 nM	potent SSTR5 antagonistic activity	CCOc1cc(CN2CCC3(CC2)CN(c2ccc(C(=O)O)cc2)C3)cc(OCC)c1-c1ccc(F)cc1 [Example 10, 4-(7-((2,6-diethoxy-4′-fluoro-[1,1′-biphenyl]-4-yl)methyl)-2,7-diazaspiro[3.5]nonan-2-yl)benzoic acid]
0.1 to 50 nM	0.1 to 50 nM	potent SSTR5 antagonistic activity	CCOc1cc(CN2CCC3(CC2)CN(c2ccc(C(=O)O)cc2F)C3)cc(OCC)c1-c1ccc(F)cc1 [Example 27, 4-(7-((2,6-diethoxy-4′-fluoro-[1,1′-biphenyl]-4-yl)methyl)-2,7-diazaspiro[3.5]nonan-2-yl)-3-fluorobenzoic acid]
0.1 to 50 nM	0.1 to 50 nM	–	CCOc1cc(CN2CCC(C3CN(S(=O)(=O)c4ccc(OC(F)(F)F)cc4)C3)CC2)cc(OCC)c1-c1ccc(F)cc1 [Example 14]
–	50 to 200 nM	–	CCOc1ccc(C2CC2)c(CN2CC3(CC(=O)N(c4ccc(C(=O)O)cc4)C3)C2)c1 [Example 9, 4-(2-(2-cyclopropyl-5-ethoxybenzyl)-7-oxo-2,6-diazaspiro[3.4]octyl-6-yl)benzoic acid]
–	50 to 200 nM	–	CCOc1cc(CN2CCN(S(=O)(=O)c3ccc(C(=O)O)cc3)CC2)cc(OCC)c1-c1ccc(F)cc1 [Example 17, 4-((4-((2,6-diethoxy-4′-fluoro-[1,1′-biphenyl]-4-yl)methyl)piperazin-1-yl)sulfonyl)benzoic acid]
50 to 200 nM	0.1 to 50 nM	potent SSTR5 antagonistic activity	CCOc1cc(CN2CCC3C(CCN3c3ccc(C(=O)O)cc3)C2)cc(OCC)c1-c1ccc(F)cc1 (stereo not shown) [Example 2, 4-(5-((2,6-diethoxy-4′-fluoro-[1,1′-biphenyl]-4-yl)methyl)octahydro-1H-pyrrolo[3,2-c]pyridin-1-yl)benzoic acid]
0.1 to 50 nM	0.1 to 50 nM	potent SSTR5 antagonistic activity	CCOc1cc(CN2CC3(CC(=O)N(c4ccc(C(=O)O)cc4)C3)C2)cc(OCC)c1-c1ccc(F)cc1 [Example 7, 4-(2-((2,6-diethoxy-4′-fluoro-[1,1′-biphenyl]-4-yl)methyl)-7-oxo-2,6-diazaspiro[3.4]octane-6-yl)benzoic acid]
0.1 to 50 nM	50 to 200 nM	–	CCOc1cc(CN2CCC3(CC2)CC(NS(=O)(=O)c2ccc(OC(F)(F)F)cc2)C3)cc(OCC)c1-c1ccc(F)cc1 [Example 11, N-(7-((2,6-diethoxy-4′-fluoro-[1,1′-biphenyl]-4-yl)methyl)-7-azaspiro[3.5]nonan-2-yl)-4-(trifluoromethoxy)benzenesulfonamide]
–	> 200 nM	–	O=C(O)c1ccc(N2CC3(CC2=O)CN(Cc2cc(C(F)(F)F)ccc2C2CC2)C3)cc1 [Example 23, 4-(2-(2-cyclopropyl-5-(trifluoromethyl)benzyl)-7-oxo-2,6-diazaspiro[3.4]octyl-6-yl)benzoic acid]
–	50 to 200 nM	–	CCOc1cc(CN2CCC3(CC2)CN(c2ccc(C(=O)O)cc2)CCO3)cc(OCC)c1-c1ccc(F)cc1 [Example 5]
–	50 to 200 nM	–	CCOc1cc(CN2CCC3(CC2)CN(c2ccc(C(=O)O)cc2)C3)ccc1N(CC)CC [Example 25, 4-(7-(4-(diethylamino)-3-ethoxybenzyl)-2,7-diazaspiro[3.5]nonan-2-yl)benzoic acid]

SMILES	IC50 [1]	IC50 [2]	SSTR5 antagonistic activity (in words) [2]
CCOc1cc(CN2CC3(CC(=O)N(c4ccc(C(=O)O)cc4)C3)C2)ccc1O [Example 26, 4-(2-(3-ethoxy-4-hydroxybenzyl)-7-oxo-2,6-diazaspiro[3.4]octyl-6-yl)benzoic acid]	–	> 200 nM	–
